“And” between values parts separate entries of the source, which are not always exact repeats. Equal entries are not always repeated. Toxic doses and inconclusive results are not listed.
Tested on: L1210 leukemia ip in BDF1 mice, survival T/C
Experiment: NCI In Vivo Anticancer Drug Screen. Data for tumor model L1210 Leukemia (intraperitoneal) in B6D2F1 (BDF1) mice
Details: endpoint: mean survival time, higher = longer survival
Procedure, shortened: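 In this screen, tumor-bearing mice given compound are compared to those given vehicle, and their survival values are reported as a treated-to-control quotient.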

[1] = dose: 100.0 mg/kg/injection, schedule: Q01DX001 (ip), vehicle: saline with Tween-80
[2] = dose: 200.0 mg/kg/injection, schedule: Q01DX001 (ip), vehicle: saline with Tween-80
[3] = dose: 400.0 mg/kg/injection, schedule: Q01DX001 (ip), vehicle: saline with Tween-80
[4] = dose: 100.0 mg/kg/injection, schedule: Q01DX009 (ip), vehicle: Klucel (hydroxypropylcellulose) (HPC)
[5] = dose: 200.0 mg/kg/injection, schedule: Q01DX009 (ip), vehicle: Klucel (hydroxypropylcellulose) (HPC)
[6] = dose: 400.0 mg/kg/injection, schedule: Q01DX009 (ip), vehicle: Klucel (hydroxypropylcellulose) (HPC)
[7] = dose: 50.0 mg/kg/injection, schedule: Q04DX003 (ip), vehicle: saline
[8] = dose: 100.0 mg/kg/injection, schedule: Q01DX001 (ip), vehicle: saline
[9] = dose: 100.0 mg/kg/injection, schedule: Q04DX003 (ip), vehicle: saline

In the case of `CCCCCCC(=O)/C=C/c1ccc(Cl)cc1Cl`, the T/C (dose: 100.0 mg/kg/injection, schedule: Q01DX009 (ip), vehicle: acetone) is reported as 95 % of control, the T/C (dose: 100.0 mg/kg/injection, schedule: Q04DX003 (ip), vehicle: acetone) is reported as 86 % of control and the T/C (dose: 200.0 mg/kg/injection, schedule: Q01DX009 (ip), vehicle: acetone) is reported as 90 % of control. For the same compound, the T/C (dose: 200.0 mg/kg/injection, schedule: Q04DX003 (ip), vehicle: acetone) was 91 % of control, the T/C (dose: 400.0 mg/kg/injection, schedule: Q01DX009 (ip), vehicle: acetone) was 95 % of control and the T/C (dose: 400.0 mg/kg/injection, schedule: Q04DX003 (ip), vehicle: acetone) was 93 % of control.
With `OCc1c2ccccc2cc2ccccc12` the T/C [1] was 93 % of control, the T/C [2] was 87 % of control and the T/C [3] was 93 % of control.
In the case of `NC(=O)NC(=O)c1nc2ccccc2[nH]c1=O`, the T/C (dose: 100.0 mg/kg/injection, schedule: Q04DX002 (ip), vehicle: Klucel (hydroxypropylcellulose) (HPC)) is reported as 95 % of control, the T/C (dose: 200.0 mg/kg/injection, schedule: Q04DX002 (ip), vehicle: Klucel (hydroxypropylcellulose) (HPC)) is reported as 95 % of control and the T/C (dose: 400.0 mg/kg/injection, schedule: Q04DX002 (ip), vehicle: Klucel (hydroxypropylcellulose) (HPC)) is reported as 100 % of control.
`CN(C)c1ccc(-c2nc3nc[nH]c(=O)c3[nH]2)cc1` was tested, and the T/C (dose: 5.0 mg/kg/injection, schedule: Q01DX001 (ip), vehicle: saline) was 100 % of control, the T/C (dose: 10.0 mg/kg/injection, schedule: Q01DX001 (ip), vehicle: saline) was 96 % of control and the T/C (dose: 20.0 mg/kg/injection, schedule: Q01DX001 (ip), vehicle: saline) was 96 % of control. The T/C (dose: 40.0 mg/kg/injection, schedule: Q01DX001 (ip), vehicle: saline) was 96 % of control and the T/C (dose: 80.0 mg/kg/injection, schedule: Q01DX001 (ip), vehicle: saline) was 96 % of control.
For `COc1ccc2c(c1C)OC(C)C2=O` (configuration not stated), the T/C [4] was 93 % of control, the T/C (dose: 100.0 mg/kg/injection, schedule: Q04DX003 (ip), vehicle: Klucel (hydroxypropylcellulose) (HPC)) was 101 % of control and the T/C [5] was 92 % of control. For the same compound, the T/C (dose: 200.0 mg/kg/injection, schedule: Q04DX003 (ip), vehicle: Klucel (hydroxypropylcellulose) (HPC)) was 104 % of control, the T/C [6] was 104 % of control and the T/C (dose: 400.0 mg/kg/injection, schedule: Q04DX003 (ip), vehicle: Klucel (hydroxypropylcellulose) (HPC)) was 97 % of control.
In the case of `O=C(O)C(O)C(Br)C(=O)O` (configuration not stated), the T/C [7] is reported as 95 % of control, the T/C [8] is reported as 95 % of control and the T/C [9] is reported as 104 % of control.
With `C=Cc1c2[n-]c(c1C)/C=c1\[n-]/c(c(C)c1C=C)=C\c1[n-]c(c(CCC(=O)O)c1C)/C=c1\[n-]/c(c(C)c1CCC(=O)O)=C\2.[Co]` the T/C (dose: 100.0 mg/kg/injection, schedule: Q01DX009 (ip), vehicle: dextrose) was 88 % of control, the T/C (dose: 100.0 mg/kg/injection, schedule: Q04DX003 (ip), vehicle: dextrose) was 94 % of control and the T/C (dose: 200.0 mg/kg/injection, schedule: Q01DX009 (ip), vehicle: dextrose) was 94 % of control. The T/C (dose: 200.0 mg/kg/injection, schedule: Q04DX003 (ip), vehicle: dextrose) was 104 % of control, the T/C (dose: 400.0 mg/kg/injection, schedule: Q04DX003 (ip), vehicle: dextrose) was 94 % of control and the T/C (dose: 1:1.0 dilution, schedule: Q04DX002 (ip), vehicle: saline) was 104 % of control. For the same compound, the T/C (dose: 1:2.0 dilution, schedule: Q04DX002 (ip), vehicle: saline) was 104 % of control and the T/C (dose: 1:4.0 dilution, schedule: Q04DX002 (ip), vehicle: saline) was 86 % of control.
With `CCOC(=O)Cc1c[nH]c2ccc(N(CCCl)CCCl)cc12` the T/C (dose: 0.55 mg/kg/injection, schedule: Q01DX009 (ip), vehicle: carboxymethylcellulose (CMC)) was 121 % of control, the T/C (dose: 1.5 mg/kg/injection, schedule: Q01DX009 (ip), vehicle: carboxymethylcellulose (CMC)) was 151 % of control and the T/C (dose: 2.2 mg/kg/injection, schedule: Q01DX009 (ip), vehicle: other) was 152 % of control. For the same compound, the T/C (dose: 3.1 mg/kg/injection, schedule: Q01DX009 (ip), vehicle: carboxymethylcellulose (CMC)) was 160 % of control and 177 % of control, the T/C (dose: 3.4 mg/kg/injection, schedule: Q01DX009 (ip), vehicle: other) was 152 % of control and the T/C (dose: 4.8 mg/kg/injection, schedule: Q01DX009 (ip), vehicle: carboxymethylcellulose (CMC)) was 168 % of control. For the same compound, the T/C (dose: 5.0 mg/kg/injection, schedule: Q01DX009 (ip), vehicle: other) was 169 % of control, the T/C (dose: 7.0 mg/kg/injection, schedule: Q01DX009 (ip), vehicle: carboxymethylcellulose (CMC)) was 157 % of control and the T/C (dose: 7.0 mg/kg/injection, schedule: Q01DX009 (ip), vehicle: other) was 176 % of control. For the same compound, the T/C (dose: 7.3 mg/kg/injection, schedule: Q01DX001 (ip), vehicle: carboxymethylcellulose (CMC)) was 120 % of control, the T/C (dose: 7.3 mg/kg/injection, schedule: Q01DX009 (ip), vehicle: carboxymethylcellulose (CMC)) was 176 % of control and the T/C (dose: 11.0 mg/kg/injection, schedule: Q01DX001 (ip), vehicle: carboxymethylcellulose (CMC)) was 124 % of control. For the same compound, the T/C (dose: 11.0 mg/kg/injection, schedule: Q01DX009 (ip), vehicle: carboxymethylcellulose (CMC)) was 168 % of control, the T/C (dose: 11.1 mg/kg/injection, schedule: Q01DX009 (ip), vehicle: carboxymethylcellulose (CMC)) was 97 % of control and the T/C (dose: 16.6 mg/kg/injection, schedule: Q01DX001 (ip), vehicle: carboxymethylcellulose (CMC)) was 121 % of control. The T/C (dose: 25.0 mg/kg/injection, schedule: Q01DX001 (ip), vehicle: carboxymethylcellulose (CMC)) was 166 % of control and 225 % of control and the T/C (dose: 37.5 mg/kg/injection, schedule: Q01DX001 (ip), vehicle: carboxymethylcellulose (CMC)) was 94 % of control.
In the case of `C1CCC(C2OCCO2)CC1`, the T/C (dose: 100.0 mg/kg/injection, schedule: Q01DX009 (ip), vehicle: saline) is reported as 98 % of control, the T/C [9] is reported as 97 % of control and the T/C (dose: 200.0 mg/kg/injection, schedule: Q01DX009 (ip), vehicle: saline) is reported as 118 % of control. The T/C (dose: 200.0 mg/kg/injection, schedule: Q04DX003 (ip), vehicle: saline) was 94 % of control, the T/C (dose: 400.0 mg/kg/injection, schedule: Q01DX009 (ip), vehicle: saline) was 88 % of control and the T/C (dose: 400.0 mg/kg/injection, schedule: Q04DX003 (ip), vehicle: saline) was 92 % of control.
With `CCc1oc2cc([N+](=O)[O-])ccc2c1C(OC(C)=O)OC(C)=O` the T/C [4] was 100 % of control, the T/C [5] was 105 % of control and the T/C [6] was 96 % of control.
`CCC1CC(C)C(=O)NC1=O` (configuration not stated) was tested, and the T/C (dose: 12.5 mg/kg/injection, schedule: Q01DX009 (ip), vehicle: saline) was 95 % of control, the T/C (dose: 12.5 mg/kg/injection, schedule: Q04DX003 (ip), vehicle: saline) was 91 % of control and the T/C (dose: 25.0 mg/kg/injection, schedule: Q01DX009 (ip), vehicle: saline) was 100 % of control. For the same compound, the T/C (dose: 25.0 mg/kg/injection, schedule: Q04DX003 (ip), vehicle: saline) was 110 % of control, the T/C (dose: 50.0 mg/kg/injection, schedule: Q01DX009 (ip), vehicle: saline) was 95 % of control and the T/C [7] was 96 % of control.
`CCSc1ccc2c(cc1=O)C(N)CCc1cc(OC)c(OC)c(OC)c1-2` (configuration not stated) was tested, and the T/C (dose: 12.5 mg/kg/injection, schedule: Q04DX002 (ip), vehicle: saline) was 107 % of control, the T/C (dose: 25.0 mg/kg/injection, schedule: Q04DX002 (ip), vehicle: saline) was 95 % of control and the T/C (dose: 50.0 mg/kg/injection, schedule: Q04DX002 (ip), vehicle: saline) was 98 % of control.
In the case of `O=C(O)CC(NC(=O)OCc1ccccc1)c1ccc(Cl)cc1` (configuration not stated), the T/C [1] is reported as 90 % of control, the T/C (dose: 100.0 mg/kg/injection, schedule: Q01DX009 (ip), vehicle: saline with Tween-80) is reported as 100 % of control and 112 % of control and the T/C (dose: 100.0 mg/kg/injection, schedule: Q04DX002 (ip), vehicle: saline with Tween-80) is reported as 103 % of control. The T/C (dose: 100.0 mg/kg/injection, schedule: Q04DX003 (ip), vehicle: saline with Tween-80) was 101 % of control, the T/C [2] was 94 % of control and the T/C (dose: 200.0 mg/kg/injection, schedule: Q01DX009 (ip), vehicle: saline with Tween-80) was 93 % of control and 102 % of control. For the same compound, the T/C (dose: 200.0 mg/kg/injection, schedule: Q04DX002 (ip), vehicle: saline with Tween-80) was 103 % of control, the T/C (dose: 200.0 mg/kg/injection, schedule: Q04DX003 (ip), vehicle: saline with Tween-80) was 93 % of control and the T/C [3] was 101 % of control. For the same compound, the T/C (dose: 400.0 mg/kg/injection, schedule: Q04DX002 (ip), vehicle: saline with Tween-80) was 92 % of control and the T/C (dose: 400.0 mg/kg/injection, schedule: Q04DX003 (ip), vehicle: saline with Tween-80) was 101 % of control.
With `CCCN(CCC)CCCCN(CCC)CCCN(CCC)CCC` the T/C [8] was 107 % of control and the T/C (dose: 200.0 mg/kg/injection, schedule: Q01DX001 (ip), vehicle: saline) was 94 % of control.
